Assay in all cases: relative viability (nuclei count vs DMSO), 5 days (fraction); higher = more cells survive
Compound in the experiment “Lapatinib + Linsitinib”: CS(=O)(=O)CCNCc1ccc(-c2ccc3ncnc(Nc4ccc(OCc5cccc(F)c5)c(Cl)c4)c3c2)o1 [Lapatinib] + C[C@]1(O)C[C@@H](c2nc(-c3ccc4ccc(-c5ccccc5)nc4c3)c3c(N)nccn32)C1 [Linsitinib] (partner 1 µM)
The method, boiled down: (§1)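 Five library-drug doses in √10 steps were combined with a fixed anchor-drug dose, or a single drug was given alone, by pin tool to lung cancer cell lines in 1536-well plates the day after seeding. Nuclei were stained and counted after 5 days. Relative viability is the nuclei count in treated wells over that in vehicle wells, taken as the median of duplicate plates.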

Compound in the experiment “Lapatinib + Palbociclib”: CS(=O)(=O)CCNCc1ccc(-c2ccc3ncnc(Nc4ccc(OCc5cccc(F)c5)c(Cl)c4)c3c2)o1 [Lapatinib] + CC(=O)c1c(C)c2cnc(Nc3ccc(N4CCNCC4)cn3)nc2n(C2CCCC2)c1=O [Palbociclib] (partner 0.5 µM)
In outline:
as §1

Compound in the experiment “Wnt-C59 + AZD7762”: CC1=NC=CC(=C1)C2=CC=C(C=C2)CC(=O)NC3=CC=C(C=C3)C4=CN=CC=C4 [Wnt-C59] + NC(=O)Nc1cc(-c2cccc(F)c2)sc1C(=O)N[C@H]1CCCNC1 [AZD7762] (partner 0.2 µM)
In outline: as §1

Compound in the experiment “Wnt-C59 + Trametinib”: CC1=NC=CC(=C1)C2=CC=C(C=C2)CC(=O)NC3=CC=C(C=C3)C4=CN=CC=C4 [Wnt-C59] + CC(=O)Nc1cccc(-n2c(=O)n(C3CC3)c(=O)c3c(Nc4ccc(I)cc4F)n(C)c(=O)c(C)c32)c1 [Trametinib] (partner 0.02 µM)
In outline: as §1

Regarding EMC-BAC-2, the relative viability with Lapatinib + Linsitinib (first compound 0.02 µM) was found to be 0.755; with Lapatinib + Linsitinib (first compound 0.06325 µM) it was 0.732; with Lapatinib + Linsitinib (first compound 0.2 µM), 0.698; with Lapatinib + Linsitinib (first compound 0.6325 µM), 0.623; with Lapatinib + Linsitinib (first compound 2 µM) it was 0.563; in the experiment with Lapatinib + Palbociclib (first compound 0.06325 µM), 0.459. The relative viability was determined as 0.524 with Lapatinib + Palbociclib (first compound 0.2 µM); 0.536 in the experiment with Lapatinib + Palbociclib (first compound 0.6325 µM); 0.539 with Lapatinib + Palbociclib (first compound 2 µM); 0.941 with Wnt-C59 + AZD7762 (first compound 0.001 µM); 0.975 with Wnt-C59 + AZD7762 (first compound 0.01 µM); 0.897 with Wnt-C59 + AZD7762 (first compound 0.03162 µM). Also, the relative viability was 0.975 with Wnt-C59 + AZD7762 (first compound 0.1 µM); 0.797 in the experiment with Wnt-C59 + Trametinib (first compound 0.001 µM); 0.697 with Wnt-C59 + Trametinib (first compound 0.01 µM); 0.793 with Wnt-C59 + Trametinib (first compound 0.03162 µM); 0.713 with Wnt-C59 + Trametinib (first compound 0.1 µM).
Take NCI-H358: the relative viability in the experiment with Lapatinib + Linsitinib (first compound 0.02 µM) was determined as 0.548; with Lapatinib + Linsitinib (first compound 0.2 µM) it was 0.512; with Lapatinib + Linsitinib (first compound 0.6325 µM), 0.329; with Lapatinib + Linsitinib (first compound 2 µM), 0.277; with Lapatinib + Palbociclib (first compound 0.02 µM) it was 0.16; in the experiment with Lapatinib + Palbociclib (first compound 0.06325 µM), 0.124. For the same cell line, the relative viability amounted to 0.13 with Lapatinib + Palbociclib (first compound 0.2 µM); 0.132 with Lapatinib + Palbociclib (first compound 0.6325 µM); 0.104 with Lapatinib + Palbociclib (first compound 2 µM); 0.448 in the experiment with Wnt-C59 + AZD7762 (first compound 0.001 µM); 0.582 with Wnt-C59 + AZD7762 (first compound 0.01 µM); 0.588 with Wnt-C59 + AZD7762 (first compound 0.03162 µM). Further, the relative viability in the experiment with Wnt-C59 + AZD7762 (first compound 0.1 µM) stood at 0.617; in the experiment with Wnt-C59 + Trametinib (first compound 0.001 µM), 0.129; with Wnt-C59 + Trametinib (first compound 0.01 µM), 0.119; with Wnt-C59 + Trametinib (first compound 0.03162 µM), 0.143; with Wnt-C59 + Trametinib (first compound 0.1 µM), 0.1.
As for NCI-H2087, the relative viability with Lapatinib + Linsitinib (first compound 0.02 µM) stood at 0.97; with Lapatinib + Linsitinib (first compound 0.06325 µM), 0.887; with Lapatinib + Linsitinib (first compound 0.2 µM) it was 1.01; in the experiment with Lapatinib + Linsitinib (first compound 0.6325 µM) it was 1.06; in the experiment with Lapatinib + Linsitinib (first compound 2 µM) it was 0.818; in the experiment with Lapatinib + Palbociclib (first compound 0.02 µM), 0.238. Besides, the relative viability in the experiment with Lapatinib + Palbociclib (first compound 0.06325 µM) was determined as 0.161; with Lapatinib + Palbociclib (first compound 0.2 µM), 0.177; with Lapatinib + Palbociclib (first compound 0.6325 µM), 0.251; with Lapatinib + Palbociclib (first compound 2 µM), 0.246; with Wnt-C59 + AZD7762 (first compound 0.001 µM), 1.43; in the experiment with Wnt-C59 + AZD7762 (first compound 0.01 µM), 1.37. For the same cell line, the relative viability was 1.28 with Wnt-C59 + AZD7762 (first compound 0.03162 µM); 1.2 in the experiment with Wnt-C59 + AZD7762 (first compound 0.1 µM); 0.203 with Wnt-C59 + Trametinib (first compound 0.001 µM); 0.176 with Wnt-C59 + Trametinib (first compound 0.01 µM); 0.205 with Wnt-C59 + Trametinib (first compound 0.03162 µM); 0.259 with Wnt-C59 + Trametinib (first compound 0.1 µM).
Consider NCI-H1355, for which the relative viability with Lapatinib + Linsitinib (first compound 0.06325 µM) stood at 0.745; with Lapatinib + Linsitinib (first compound 0.2 µM), 0.782; in the experiment with Lapatinib + Linsitinib (first compound 0.6325 µM), 0.792; in the experiment with Lapatinib + Linsitinib (first compound 2 µM), 0.526; with Lapatinib + Palbociclib (first compound 0.02 µM) it was 0.411; with Lapatinib + Palbociclib (first compound 0.06325 µM), 0.29. In addition, the relative viability in the experiment with Lapatinib + Palbociclib (first compound 0.2 µM) worked out at 0.402; with Lapatinib + Palbociclib (first compound 0.6325 µM), 0.361; with Lapatinib + Palbociclib (first compound 2 µM), 0.268; with Wnt-C59 + AZD7762 (first compound 0.001 µM) it was 0.81; with Wnt-C59 + AZD7762 (first compound 0.01 µM) it was 0.753; with Wnt-C59 + AZD7762 (first compound 0.03162 µM), 0.753. Also, the relative viability in the experiment with Wnt-C59 + AZD7762 (first compound 0.1 µM) was 0.766; in the experiment with Wnt-C59 + Trametinib (first compound 0.001 µM), 0.455; with Wnt-C59 + Trametinib (first compound 0.01 µM), 0.404; with Wnt-C59 + Trametinib (first compound 0.03162 µM), 0.423; with Wnt-C59 + Trametinib (first compound 0.1 µM) it was 0.373.

The record behind these values is the supplement of paper PMC10307832.
